Experimental data from patent US9963455B2, “Pyrazolo[1,5-a]pyrimidines as antiviral compounds” (Curovir AB, priority 2014, dated 2018).

What was measured:
Assay type in all cases: cell-based
polio virus strain 1 = assay: organism not typed; conditions: read-out: % inh.
Ljungan virus strain 145 = assay: CPE inhibition in mammalian cell culture, LV145; conditions: Parechovirus B; LV145, Conc. 10.0 μM
[1] = system: coxsackie B virus strain 2; assay: CPE inhibition in mammalian cell culture, Cox-B2; conditions: read-out: % inh.

Cc1cc(NCCc2ccccc2)n2nc(C)c(-c3ccc(F)cc3)c2n1 [Ex. 14, 3-(4-fluorophenyl)-2,5-dimethyl-N-phenethyl-pyrazolo[1,5-a]pyrimidin-7-amine] gave an inhibition at 10 µM (polio virus strain 1) of 73%.

COc1ccc(CCNc2cc(C)nc3c(-c4ccc(F)cc4)c(C)nn23)cc1OC [Ex. 15, N-[2-(3,4-dimethoxyphenyl)ethyl]-3-(4-fluorophenyl)-2,5-dimethyl-pyrazolo[1,5-a]pyrimidin-7-amine] gave an inhibition at 10 µM (polio virus strain 1) of 75%.

For Cc1cc(NC(C)c2ccccc2)n2nc(C)c(-c3ccc(F)cc3)c2n1 (centres unmarked) [Ex. 17, 3-(4-fluorophenyl)-2,5-dimethyl-N-(1-phenylethyl)pyrazolo[1,5-a]pyrimidin-7-amine], the inhibition at 10 µM (Ljungan virus strain 145) was 75%.

In the case of Cc1cc(NCc2ccccc2)n2ncc(-c3ccc(F)cc3)c2n1 [Ex. 18, N-benzyl-3-(4-fluorophenyl)-5-methyl-pyrazolo[1,5-a]pyrimidin-7-amine], the inhibition at 10 µM (polio virus strain 1) is reported as 51%.

For COc1ccc(CCNc2cc(C)nc3c(-c4ccc(F)cc4)cnn23)cc1OC [Ex. 19, N-[2-(3,4-dimethoxyphenyl)ethyl]-3-(4-fluorophenyl)-5-methyl-pyrazolo[1,5-a]pyrimidin-7-amine], the inhibition at 10 µM (Ljungan virus strain 145) was 34%.

Cc1cc(NCc2ccccc2)n2ncc(-c3ccccc3)c2n1 [Ex. 21, N-benzyl-5-methyl-3-phenyl-pyrazolo[1,5-a]pyrimidin-7-amine] was tested, and the inhibition at 10 µM (polio virus strain 1) was 78%.

Work on COc1ccc(CCNc2cc(C)nc3c(-c4ccccc4)cnn23)cc1OC [Ex. 22, N-[2-(3,4-dimethoxyphenyl)ethyl]-5-methyl-3-phenyl-pyrazolo[1,5-a]pyrimidin-7-amine] yielded an inhibition at 10 µM [1] of 44%.

Compound CC(C)(C)c1cc(NCCCn2ccnc2)n2ncc(-c3ccccc3)c2n1 [Ex. 23, 5-tert-butyl-N-(3-imidazol-1-ylpropyl)-3-phenyl-pyrazolo[1,5-a]pyrimidin-7-amine] has an inhibition at 10 µM (polio virus strain 1) of 94%.

CCCc1cc(NCCCn2ccnc2)n2nc(C)c(-c3ccccc3)c2n1 [Ex. 24, N-(3-imidazol-1-ylpropyl)-2-methyl-3-phenyl-5-propyl-pyrazolo[1,5-a]pyrimidin-7-amine] was tested, and the inhibition at 10 µM (polio virus strain 1) was 86%.

For Cc1cc(NCCc2ccccc2)n2ncc(-c3ccc(Cl)cc3)c2n1 [Ex. 26, 3-(4-chlorophenyl)-5-methyl-N-phenethyl-pyrazolo[1,5-a]pyrimidin-7-amine], the inhibition at 10 µM [1] was 30%.

COc1ccc(CCNc2cc(C)nc3c(-c4ccc(Cl)cc4)cnn23)cc1OC [Ex. 27, 3-(4-chlorophenyl)-N-[2-(3,4-dimethoxyphenyl)ethyl]-5-methyl-pyrazolo[1,5-a]pyrimidin-7-amine] showed an inhibition at 10 µM (polio virus strain 1) of 35%.

In the case of Cc1cc(NCCCn2ccnc2)n2ncc(-c3ccc(Cl)cc3)c2n1 [Ex. 28, 3-(4-chlorophenyl)-N-(3-imidazol-1-ylpropyl)-5-methyl-pyrazolo[1,5-a]pyrimidin-7-amine], the inhibition at 10 µM (polio virus strain 1) is reported as 72%.

COc1ccc(CCNc2cc(C)nc3c(-c4ccc(C)cc4)cnn23)cc1OC [Ex. 29, N-[2-(3,4-dimethoxyphenyl)ethyl]-5-methyl-3-(p-tolyl)pyrazolo[1,5-a]pyrimidin-7-amine] was tested, and the inhibition at 10 µM [1] was 62%.

CCc1nn2c(NCCc3ccc(OC)c(OC)c3)cc(C)nc2c1-c1ccccc1 [Ex. 30, N-[2-(3,4-dimethoxyphenyl)ethyl]-2-ethyl-5-methyl-3-phenyl-pyrazolo[1,5-a]pyrimidin-7-amine] was tested, and the inhibition at 10 µM (Ljungan virus strain 145) was 100%.

CCc1nn2c(NCCCn3ccnc3)cc(C)nc2c1-c1ccccc1 [Ex. 31, 2-ethyl-N-(3-imidazol-1-ylpropyl)-5-methyl-3-phenyl-pyrazolo[1,5-a]pyrimidin-7-amine] gave an inhibition at 10 µM (Ljungan virus strain 145) of 14%.

Cc1ccc(CCNc2cc(C)nc3c(-c4ccc(Cl)cc4)c(C)nn23)cc1 [Ex. 32, 3-(4-chlorophenyl)-2,5-dimethyl-N-[2-(p-tolyl)ethyl]pyrazolo[1,5-a]pyrimidin-7-amine] was tested, and the inhibition at 10 µM (polio virus strain 1) was 25%.

With Cc1cc(NCc2ccccn2)n2nc(C)c(-c3ccc(F)cc3)c2n1 [Ex. 37, 3-(4-fluorophenyl)-2,5-dimethyl-N-(2-pyridylmethyl)pyrazolo[1,5-a]pyrimidin-7-amine] the inhibition at 10 µM [1] was 78%.

Cc1cc(NC2CCCC2)n2nc(C)c(-c3ccc(F)cc3)c2n1 [Ex. 38, N-cyclopentyl-3-(4-fluorophenyl)-2,5-dimethyl-pyrazolo[1,5-a]pyrimidin-7-amine] was tested, and the inhibition at 10 µM (Ljungan virus strain 145) was 84%.

Cc1cc(NCc2cccnc2)n2nc(C)c(-c3ccccc3)c2n1 [Ex. 39, 2,5-dimethyl-3-phenyl-N-(3-pyridylmethyl)pyrazolo[1,5-a]pyrimidin-7-amine] gave an inhibition at 1 µM (polio virus strain 1) of 71%.

Compound Cc1cc(NCc2ccccn2)n2nc(C)c(-c3ccc(Cl)cc3)c2n1 [Ex. 42, 3-(4-chlorophenyl)-2,5-dimethyl-N-(2-pyridylmethyl)pyrazolo[1,5-a]pyrimidin-7-amine] has an inhibition at 1 µM (polio virus strain 1) of 96%.

In the case of Cc1cc(NCCCn2ccnc2)n2nc(C)c(-c3ccc(Cl)cc3)c2n1 [Ex. 44, 3-(4-chlorophenyl)-N-(3-imidazol-1-ylpropyl)-2,5-dimethyl-pyrazolo[1,5-a]pyrimidin-7-amine], the inhibition at 1 µM (polio virus strain 1) is reported as 70%.

COc1ccc(-c2c(C)nn3c(Nc4ccc(C)cc4)cc(C)nc23)cc1OC [Ex. 48, 3-(3,4-dimethoxyphenyl)-2,5-dimethyl-N-(p-tolyl)pyrazolo[1,5-a]pyrimidin-7-amine] was tested, and the inhibition at 1 µM (polio virus strain 1) was 79%.

COc1ccc(Nc2cc(C)nc3c(-c4ccc(OC)c(OC)c4)c(C)nn23)cc1 [Ex. 49, 3-(3,4-dimethoxyphenyl)-N-(4-methoxyphenyl)-2,5-dimethyl-pyrazolo[1,5-a]pyrimidin-7-amine] gave an inhibition at 1 µM [1] of 80%.

With COc1ccc(-c2c(C)nn3c(Nc4cccc(C)c4)cc(C)nc23)cc1OC [Ex. 50, 3-(3,4-dimethoxyphenyl)-2,5-dimethyl-N-(m-tolyl)pyrazolo[1,5-a]pyrimidin-7-amine] the inhibition at 1 µM (polio virus strain 1) was 81%.

COc1ccc(-c2c(C)nn3c(Nc4ccc(F)cc4)cc(C)nc23)cc1OC [Ex. 53, 3-(3,4-dimethoxyphenyl)-N-(4-fluorophenyl)-2,5-dimethyl-pyrazolo[1,5-a]pyrimidin-7-amine] showed an inhibition at 10 µM (polio virus strain 1) of 84%.

Work on CCOc1ccc(Nc2cc(C)nc3c(-c4ccc(OC)c(OC)c4)c(C)nn23)cc1 [Ex. 54, 3-(3,4-dimethoxyphenyl)-N-(4-ethoxyphenyl)-2,5-dimethyl-pyrazolo[1,5-a]pyrimidin-7-amine] yielded an inhibition at 1 µM (polio virus strain 1) of 89%.

COc1ccc(-c2c(C)nn3c(Nc4ccc(NC(C)=O)cc4)cc(C)nc23)cc1OC [Ex. 58, N-[4-[[3-(3,4-dimethoxyphenyl)-2,5-dimethyl-pyrazolo[1,5-a]pyrimidin-7-yl]amino]phenyl]acetamide] showed an inhibition at 0.1 µM (polio virus strain 1) of 74%.

Work on COc1ccc(-c2c(C)nn3c(Nc4ccc(Cl)c(Cl)c4)cc(C)nc23)cc1OC [Ex. 59, N-(3,4-dichlorophenyl)-3-(3,4-dimethoxyphenyl)-2,5-dimethyl-pyrazolo[1,5-a]pyrimidin-7-amine] yielded an inhibition at 10 µM [1] of 88%.

Compound CCc1ccc(Nc2cc(C)nc3c(-c4ccc(OC)c(OC)c4)c(C)nn23)cc1 [Ex. 62, 3-(3,4-dimethoxyphenyl)-N-(4-ethylphenyl)-2,5-dimethyl-pyrazolo[1,5-a]pyrimidin-7-amine] has an inhibition at 1 µM (polio virus strain 1) of 97%.

In the case of CCCCc1ccc(Nc2cc(C)nc3c(-c4ccc(OC)c(OC)c4)c(C)nn23)cc1 [Ex. 63, N-(4-butylphenyl)-3-(3,4-dimethoxyphenyl)-2,5-dimethyl-pyrazolo[1,5-a]pyrimidin-7-amine], the inhibition at 1 µM (polio virus strain 1) is reported as 87%.

With COc1ccc(-c2c(C)nn3c(Nc4cc(Cl)cc(Cl)c4)cc(C)nc23)cc1OC [Ex. 64, N-(3,5-dichlorophenyl)-3-(3,4-dimethoxyphenyl)-2,5-dimethyl-pyrazolo[1,5-a]pyrimidin-7-amine] the inhibition at 1 µM (polio virus strain 1) was 20%.

With COc1ccc(-c2c(C)nn3c(NCc4cccnc4)cc(C)nc23)cc1 [Ex. 65, 3-(4-methoxyphenyl)-2,5-dimethyl-N-(3-pyridylmethyl)pyrazolo[1,5-a]pyrimidin-7-amine] the inhibition at 1 µM [1] was 91%.

In the case of COc1ccc(-c2c(C)nn3c(NCc4ccncc4)cc(C)nc23)cc1 [Ex. 66, 3-(4-methoxyphenyl)-2,5-dimethyl-N-(4-pyridylmethyl)pyrazolo[1,5-a]pyrimidin-7-amine], the inhibition at 0.01 µM (polio virus strain 1) is reported as 100%.

Work on COc1ccc(-c2c(C)nn3c(NCCCn4ccnc4)cc(C)nc23)cc1 [Ex. 67, N-(3-imidazol-1-ylpropyl)-3-(4-methoxyphenyl)-2,5-dimethyl-pyrazolo[1,5-a]pyrimidin-7-amine] yielded an inhibition at 1 µM (polio virus strain 1) of 63%.

Cc1cc(NCc2cccnc2)n2nc(C)c(-c3cccs3)c2n1 [Ex. 69, 2,5-dimethyl-N-(3-pyridylmethyl)-3-(2-thienyl)pyrazolo[1,5-a]pyrimidin-7-amine] gave an inhibition at 10 µM [1] of 65%.

Cc1cc(NCc2ccncc2)n2nc(C)c(-c3cccs3)c2n1 [Ex. 70, 2,5-dimethyl-N-(4-pyridylmethyl)-3-(2-thienyl)pyrazolo[1,5-a]pyrimidin-7-amine] gave an inhibition at 10 µM (polio virus strain 1) of 89%.

Cc1cc(NCCCn2ccnc2)n2nc(C)c(-c3cccs3)c2n1 [Ex. 71, N-(3-imidazol-1-ylpropyl)-2,5-dimethyl-3-(2-thienyl)pyrazolo[1,5-a]pyrimidin-7-amine] showed an inhibition at 10 µM (polio virus strain 1) of 72%.

For COc1ccc(-c2c(C)nn3c(NCc4ccnc(C)n4)cc(C)nc23)cc1OC [Ex. 87, 3-(3,4-dimethoxyphenyl)-2,5-dimethyl-N-[(2-methylpyrimidin-4-yl)methyl]pyrazolo[1,5-a]pyrimidin-7-amine], the inhibition at 0.1 µM (polio virus strain 1) was 100%.

With COc1ccc(-c2c(C)nn3c(NCCc4ccncc4)cc(C)nc23)cc1OC [Ex. 89, 3-(3,4-dimethoxyphenyl)-2,5-dimethyl-N-[2-(4-pyridyl)ethyl]pyrazolo[1,5-a]pyrimidin-7-amine] the inhibition at 1 µM [1] was 100%.

Work on COC(=O)c1ccc(-c2c(C)nn3c(NCc4ccc(F)cc4)cc(C)nc23)cc1 [Ex. 107, methyl 4-[7-[(4-fluorophenyl)methylamino]-2,5-dimethyl-pyrazolo[1,5-a]pyrimidin-3-yl]benzoate] yielded an inhibition at 1 µM (polio virus strain 1) of 21%.

CCOc1ccc(-c2c(C)nn3c(NCc4ccc(F)cc4)cc(C)nc23)cc1OCC [Ex. 109, 3-(3,4-diethoxyphenyl)-N-[(4-fluorophenyl)methyl]-2,5-dimethyl-pyrazolo[1,5-a]pyrimidin-7-amine] showed an inhibition at 1 µM (polio virus strain 1) of 88%.
